Measured values from patent US20260131033A1, “RADIOLABELED FRUCTOSE DERIVATIVES FOR MEDICAL IMAGING” (Yellowbird Diagnostics Inc., priority 2023, published 2026).
Values belong to the molecule of their own block, whether it stands above or below them.

Tests used:
[1] = Wuest, M. et al., 2018; cited from earlier work
[2] = tested on: HepG2 human hepatocarcinoma cells; assay: Tracing of [U^13C]-fructose analog metabolism in vitro by LC-MS; assay type: cell-based; details: for metabolic fate / main ^13C-labelled cellular product / metabolism through the polyol pathway: 25 mM ^13C-labelled analog; for formation of glucose-6-phosphate: polyol pathway
Method: In order to characterize the structure-activity effect of fructose deoxyfluorination on metabolic flux, the metabolism of isotopically labelled [U^13C]-fructose, and [U^13C]-1-, [U^13C]-6-, and [U^13C]-4-FDF deoxyfluorinated fructose analogs was evaluated in vitro in HepG2 human hepatocarcinoma cells by mass spectrometry (FIGS. 3A-3G). HepG2 were chosen as a model cell line due to a recent report by Tee et al. outlining their propensity for fructolysis (Tee, S. S. et al., 2022). [U^13C]-1- and [U^13C]-6-FDF were synthesized according to previously published methods (Haradahira, T. et al., 1995; Wuest, M. et al., 2011), and [U^13C]-4-FDF was synthesized as described hereinabove (Scheme 3).
Tracing of [U^13C]-fructose metabolism in vitro. Human hepatocellular carcinoma cells (HepG2) were grown in Dulbecco's modified Eagle medium (DMEM) supplemented with 10% heat-inactivated fetal bovine serum (FBS) and 1% penicillin-streptomycin (P/S) until 80% confluent under cell culture conditions (37° C., 5% CO2, humidified), at which point they were passaged. Cells were passaged three times before being seeded in to a 6-well plate and grown until 80% confluent. Supplemented media was aspirated and replaced with lactated Ringer's buffer (LRB) alone or containing 25 mM [U^13C]-1-FDF, [U^13C]-4-FDF, or [U^13C]-6-FDF. Cells were incubated under cell culture conditions for 0, 15, 30, or 60 min. Following incubation, the plates were placed on ice and wells were aspirated. Wells were washed three times with ice-cold ammonium formate buffer (150 mM, pH 7.4) to remove unbound probe. A chilled (−20° C.) solution of 1:1 methanol:water was added to the wells and cells were scraped off of the wells into the solution. This solution was collected into bead-beater tubes containing 6 beads and stored at −80° C. until further analysis was performed.
Levels of fructose metabolites were assessed by liquid chromatography mass spectrometry (LC-MS). Sample temperature was maintained on ice or dry ice where possible, and all solvents were MS grade and pre-equilibrated to −20° C.
Metabolite extraction. Cell pellets were collected to a pre-chilled 2 mL tube containing 6 washed ceramic beads (1.4 mm). 380 μl of methanol:water (1:1) was added in the tube and kept in −80° C. until the day of metabolite extraction. On the day of extraction, samples were vortexed for 10 s and cell lysis was done by beating for 60 s at 2000 rpm (bead beating was done twice) after adding 220 μL of acetonitrile. Samples were then incubated with a 2:1 dichloromethane:water solution on ice for 10 minutes. The polar and non-polar phases were separated by centrifugation at 4000 g for 10 minutes at 1° C. The resulting upper phase, consisting of polar metabolites was dried with a refrigerated (−4° C.) centrivap concentrator (Labconco) and stored at −80° C. before LC-MS analyses.
LC-MS metabolite quantification. Samples to be injected in -ESI were re-suspended with 75% acetonitrile, cleared by centrifugation and run on an Agilent 6545B Q-TOF mass spectrometer equipped with a 1290 Infinity II ultra-high performance LC (Agilent Technologies). Continuous internal mass calibration was executed using signals from purine [12,000 full width at half maximum (FWHM) resolution] and hexakis (1H,1H,3H-tetrafluoropropoxy) phosphazine (24,000 FWHM resolution). All study samples were randomized before analysis and run using both high and low pH hydrophilic interaction chromatography (HILIC-Z) in negative ionization mode. HILIC separation was obtained using the Poroshell 120 HILIC-Z column (2.1 100 mm, […]; Agilent) and corresponding guard column. The chromatographic conditions and mass spectrometry acquisition parameters were as described elsewhere (Zhu, Z. et al., 2023). Metabolite identification was confirmed by exact mass, retention time and subsequent MS/MS fragmentation for where standards are available. For the fluoro-fructose labelled metabolites, exact mass and MS/MS was considered for metabolite confirmation. […]

[3] = Time-course PET/CT biodistribution and TACs in fed or fasted mice; details: Balb/C mice freely fed or overnight fasted, ~7.4 MBq i.v., 60 min PET/CT
Method: Animals received ˜7.4 MBq i.v. immediately upon the initiation of image acquisition, which continued for 60 min. The dynamic scan was binned according to the times indicated.
Solid line=mean; Shaded region=standard deviation. Regions of interest were drawn over the tissues of interest, and the activity within that region of interest of known volume were plotted over the timecourse of the 60 min PET/CT acquisition.

[4] = tested on: heterotopic HepG2 xenograft mouse model; assay: Comparative PET/CT biodistribution in heterotopic HepG2 xenograft mouse model; assay type: in vivo
Method: After the confirmation of cell uptake and intracellular trapping of [U^13C]4-FDF, and the successful production of the radiofluorinated analog, the biodistribution of [^18F]4-FDF was evaluated in a heterotopic HepG2 xenograft mouse model and compared to the biodistribution of [^18F]6-FDF and [^18F]FDG. PET/CT images shown are the summed images from 20-45 min after intravenous injection of (FIG. 4A) [^18F]4-FDF, (FIG. 4B) [^18F]6-FDF, or (FIG. 4C) [^18F]FDG. Sagittal, coronal, and maximum intensity projection (MIP) are shown, in addition to axial sections at the level of the brain, heart, liver/kidneys, and hips. […] Purple represents an increase in AUC and blue represents a decrease in AUC. The values are normalized fold-change in AUC.
Eight-week-old female nu/nu mice were inoculated with 10×10^6 HepG2 cells suspended in 50% Matrigel:DMEM subcutaneously under the left shoulder. Within 3-weeks of implantation, mice were imaged by PET/CT.
PET/CT Imaging. PET/CT imaging was carried out on a Bruker Si78PET/CT scanner with a 4-position hotel having adjustable isoflurane and respiratory monitoring for each position (Bruker USA). Tail veins were catheterized, and an anatomical CT was acquired over the whole of the mouse bodies using the “rat” settings. PET acquisition was started just prior to a bolus i.v. injection of approximately 200 μCi of radiotracer. Dynamic scans were acquired in list mode format over 45 min and sorted into 16×0.5-mm sinogram bins for image reconstruction (4×15 s, 4×60 s and 8×300 s). Iterative reconstruction was performed using 3D ordered-subsets expectation maximization (3D-OSEM) followed by fast maximum a posteriori (fastMAP) using Paravision 360 software v.3.4 (Bruker, USA). Four-mouse images were split into individual mice, and the bed was removed using PMOD v (Bruker, USA). VivoQuant v.2022 (InviCRO) was used for visualization of radioradiotracer uptake in tissues, to define the three-dimensional (3D) volumes of interest (VOI) and for 3D-visualisation to create volume rendering technique images. The count densities were averaged for all volumes of interest at each time point to obtain a time versus activity curve (TAC). Tumor and tissue TACs were normalized to injected dose, measured by a CRC-15 PET dose calibrator (Capintec, Inc., NJ, USA), and expressed as percentage injected dose per cubic centimeter of tissue (% ID/cc).

[5] = tested on: mouse model of systemic inflammation (LPS); assay: [^18F]4-FDF PET/CT in LPS mouse model of systemic inflammation; assay type: in vivo
Method: In order to further investigate whether a fructolytic switch occurs in inflammatory neural and cardiac tissues, a mouse model of systemic inflammation was examined. [^18F]4-FDF PET/CT was performed on mice receiving vehicle (FIG. 5A) or bacterial cell wall LPS (FIG. 5B) 24 hr after injection. Sagittal, coronal, MIP, and axial sections of the brain, heart and muscle are shown. Time-activity curves (TAC) for brain (FIG. 5C), heart (FIG. 5D), and muscle (FIG. 5E) are shown for mice receiving vehicle (−LPS) or LPS (+LPS). Solid lines are the means and dotted lines are standard deviation. […] The plots show individual data points (circles), mean (long line) and s.d. (vertical line). * p<0.05 by ANOVA followed by Tukey's test.
Mice receiving saline vehicle (FIG. 5A) or intraperitoneal bacterial cell wall lipopolysaccharide (LPS), as previously described (FIG. 5B; Shrum, B. et al., 2014), were imaged by [^18F]4-FDF PET/CT 24 hr after injection. […] The low uptake of [^18F]4-FDF in healthy brain and heart contributed to an increased signal-to-noise ratio for the mapping of cardio- and neuroinflammation in tissues that are otherwise highly glycolytic and have high [^18F]FDG uptake in the absence of disease (FIG. 4C).
Eight-week-old male Balb/C mice received 5 mg/kg LPS through intraperitoneal injection 24-hr prior to planned PET/CT imaging. Mice were supported by being warmed, and by being given fluids subcutaneously 12 hr after LPS injection. The mice were monitored and scored for severity of response to LPS as described previously (Shrum, B. et al., 2014).
PET/CT Imaging. PET/CT imaging was carried out on a Bruker Si78PET/CT scanner with a 4-position hotel having adjustable isoflurane and respiratory monitoring for each position (Bruker USA). Tail veins were catheterized, and an anatomical CT was acquired over the whole of the mouse bodies using the “rat” settings. […] Tumor and tissue TACs were normalized to injected dose, measured by a CRC-15 PET dose calibrator (Capintec, Inc., NJ, USA), and expressed as percentage injected dose per cubic centimeter of tissue (% ID/cc).

[6] = Image-based dosimetry using OLINDA software; assay type: in vivo; details: all tissues, Balb/C mice, relative to [^18F]-2-fluoro-2-deoxyglucose
Method: Image-based dosimetry was evaluated in Balb/C mice (n=4) using OLINDA software. […] The bottom plot is a zoom of the y-axis from the top plot.

concussed mouse brain = assay: PET/CT imaging of mice after closed-head concussive impact; assay type: in vivo, Balb/C mice
Method: Arrowhead indicates approximate location and direction of concussive blow. Mice were either left without head impact (Naïve), or received a single closed-head impact vertically at bregma 48 hrs prior to imaging. […] Average images from 20-40 min after the commencement of the scan are shown.

[7] = healthy brain and heart, PET/CT
[8] = HepG2 xenograft mice, intravenous injection, PET/CT
[9] = 5 mg/kg LPS i.p., imaged 24 hr after injection, vs vehicle

Molecule: O=C(CF)[C@@H](O)[C@H](O)[C@H](O)CO [[^18F]1-FDF, 1-deoxy-1-fluoro-fructose]
retention in cells in vitro and in vivo [1]: poorly retained in cells in vitro and in vivo

Molecule: O=C(CO)[C@@H](O)[C@H](F)[C@H](O)CO [[U^13C]-4-FDF, [U^13C]-4-fluoro-4-deoxyfructose]
metabolic fate / main ^13C-labelled cellular product ([2]; mass spectrometry): metabolism halted at [U^13C]-4-fluorodeoxy-1-phosphate
metabolism through the polyol pathway ([2]; mass spectrometry): capable of proceeding through the polyol pathway
accumulation of fluorodeoxyfructose-1,6-bisphosphate ([2]; mass spectrometry): accumulation of [U^13C]-4-fluorodeoxyfructose-1,6-bisphophate
metabolic trapping in the cell ([2]; mass spectrometry): unique ability to be trapped within cells
time course of metabolite generation ([2]; over 60 min of incubation): steady-state accumulation of [U^13C]-4-fluorodeoxyfructose-1-phosphate and [U^13C]-4-fluorodeoxyfructose-1,6-bisphosphate, and increase in [U^13C]-4-fluorodeoxysorbitol
formation of glucose-6-phosphate [2]: did not form detectable amounts of glucose-6-phosphate

Molecule: O=[13C]([13CH2]O)[13C@@H](O)[13C@H](O)[13C@H](O)[13CH2]O [[U^13C]-fructose]
metabolic fate / main ^13C-labelled cellular product ([2]; mass spectrometry): metabolized as expected through both fructolytic and polyol pathways

route of clearance [3]: main route of clearance is the kidney
Molecule: O=C(CO)[C@@H](O)[C@@H]([18F])[C@H](O)CO [[^18F]-4-fluoro-4-deoxytagatose]
bone uptake [3]: significant bone uptake that is retained overtime

Molecule: [^18F]-2-fluoro-2-deoxy-D-glucose [[^18F]FDG]
area under the time activity curve (AUC) in brain, fold greater than [^18F]4-FDF ([4]; brain, normalized to AUC of [^18F]4-FDF): 6.01 fold
uptake in brain and heart in the absence of disease [4, 7]: high
area under the time activity curve (AUC) in heart, fold greater than [^18F]4-FDF ([4]; heart, normalized to AUC of [^18F]4-FDF): 5.29 fold

bone uptake ([4]; HepG2 xenograft mice, PET/CT): < 2 % ID/g
excretion route [4, 8]: renal exceeding hepatobiliary excretion
tumor accumulation / pattern of radiotracer retention [4, 8]: accumulate in the tumor
accumulation in normal mouse tissues ([4]; PET/CT, compared with [^18F]FDG): lower than that observed with [^18F]FDG
uptake in healthy brain and heart [5, 7]: low uptake
retention in naïve brain (concussed mouse brain; naïve Balb/C mice, average images 20-40 min): limited retention
Molecule: OC[C@H]1OC(O)(CO)[C@@H](O)[C@@H]1[18F] (stereo partly shown) [[^18F]4-FDF, [^18F]-4-fluoro-4-deoxyfructose]
brain uptake following LPS treatment [5, 9]: significant increase
cardiac uptake following LPS treatment [5, 9]: significant increase
organ dose deposition [6]: less than or equal to the dose deposition for [^18F]-2-fluoro-2-deoxyglucose
brain retention following concussion (concussed mouse brain; single closed-head impact at bregma 48 h prior to imaging, images 20-40 min): enhanced radiotracer retention

Molecule: O=C(CO)[C@@H](O)[C@H](O)[C@H](O)CF [[U^13C]-6-FDF, [U^13C]-6-fluoro-6-deoxyfructose]
metabolic fate / main ^13C-labelled cellular product ([2]; mass spectrometry): substantial amount of [U^13C]-deoxyfluorolactate production
metabolism through the polyol pathway ([2]; mass spectrometry): capable of proceeding through the polyol pathway
metabolic trapping in the cell ([2]; mass spectrometry): neither [U^13C]-1- (FIG. 3E) nor [U^13C]-6-FDF are metabolically trapped
formation of glucose-6-phosphate [2]: did not form detectable amounts of glucose-6-phosphate

Molecule: O=C(CO)[C@@H](O)[C@H](O)[C@H](O)C[18F] [[^18F]6-FDF, [^18F]-6-fluoro-6-deoxyfructose]
bone uptake ([4]; HepG2 xenograft mice, PET/CT): > 7 % ID/g
bone uptake over time ([4]; HepG2 xenograft mice, TAC): continued to increase overtime
tumor accumulation / pattern of radiotracer retention [4, 8]: similarly observed
bone uptake, fold higher than [^18F]4-FDF ([4]; HepG2 xenograft mice, normalized to [^18F]4-FDF): 3.69 fold

Molecule: O=C(CF)[C@@H](O)[C@H](O)[C@H](O)CO [[U^13C]-1-FDF, [U^13C]-1-fluoro-1-deoxyfructose]
metabolic fate / main ^13C-labelled cellular product ([2]; mass spectrometry): majority of the ^13C-labelled cellular product being [U^13C]-deoxyfluorolactate
metabolism through the polyol pathway ([2]; mass spectrometry): limited metabolism through the polyol pathway
metabolic trapping in the cell ([2]; mass spectrometry): neither [U^13C]-1- (FIG. 3E) nor [U^13C]-6-FDF are metabolically trapped
